Results from article PMC3639963, “A New Class of Small Molecule Inhibitor of BMP Signaling” (PLoS ONE, 2013).

Tests used:
Test in all cases: Nanosyn kinase profiling
Assay type in all cases: biochemical
Settings in all cases: read-out: Percentage inhibition; for inhibition at 0.1 µM: 0.1 µM inhibitor; for inhibition at 1 µM: 1 µM inhibitor
cRAF = molecular target: T1, cRAF (Homo sapiens, UniProt P04049)
T1 construct: purchased Nanosyn (enzymatic panel); SGC in-house recombinant human kinases (DSF panel); Invitrogen (ALK1-6)
T1 sequence (P04049 whole entry): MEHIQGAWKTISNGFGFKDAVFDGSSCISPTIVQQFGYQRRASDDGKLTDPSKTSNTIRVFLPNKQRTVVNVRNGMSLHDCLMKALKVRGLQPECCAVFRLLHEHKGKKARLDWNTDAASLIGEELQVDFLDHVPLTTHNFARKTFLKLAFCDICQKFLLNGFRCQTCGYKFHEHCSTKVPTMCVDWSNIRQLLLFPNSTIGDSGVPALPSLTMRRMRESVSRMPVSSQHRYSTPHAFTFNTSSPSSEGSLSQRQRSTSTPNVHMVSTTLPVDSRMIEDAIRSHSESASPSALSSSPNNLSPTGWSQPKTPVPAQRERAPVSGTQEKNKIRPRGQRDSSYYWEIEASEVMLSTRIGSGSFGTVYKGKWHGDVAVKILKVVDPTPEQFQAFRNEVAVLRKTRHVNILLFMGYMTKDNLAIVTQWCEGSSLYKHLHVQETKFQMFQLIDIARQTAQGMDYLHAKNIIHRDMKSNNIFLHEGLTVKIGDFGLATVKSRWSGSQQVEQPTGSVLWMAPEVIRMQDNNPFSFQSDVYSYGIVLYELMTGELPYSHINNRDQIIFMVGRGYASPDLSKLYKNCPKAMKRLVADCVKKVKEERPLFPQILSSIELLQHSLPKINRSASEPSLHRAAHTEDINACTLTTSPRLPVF
How it was run: (§1)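 Percent inhibition of each kinase was measured with the inhibitor at 0.1 µM and at 1 µM, as part of a 200-kinase human selectivity panel.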

IRAK4 = molecular target: T2, IRAK4 (Homo sapiens, UniProt Q9NWZ3)
T2 construct: purchased Nanosyn (enzymatic panel); SGC in-house recombinant human kinases (DSF panel); Invitrogen (ALK1-6)
T2 sequence (Q9NWZ3 1-460): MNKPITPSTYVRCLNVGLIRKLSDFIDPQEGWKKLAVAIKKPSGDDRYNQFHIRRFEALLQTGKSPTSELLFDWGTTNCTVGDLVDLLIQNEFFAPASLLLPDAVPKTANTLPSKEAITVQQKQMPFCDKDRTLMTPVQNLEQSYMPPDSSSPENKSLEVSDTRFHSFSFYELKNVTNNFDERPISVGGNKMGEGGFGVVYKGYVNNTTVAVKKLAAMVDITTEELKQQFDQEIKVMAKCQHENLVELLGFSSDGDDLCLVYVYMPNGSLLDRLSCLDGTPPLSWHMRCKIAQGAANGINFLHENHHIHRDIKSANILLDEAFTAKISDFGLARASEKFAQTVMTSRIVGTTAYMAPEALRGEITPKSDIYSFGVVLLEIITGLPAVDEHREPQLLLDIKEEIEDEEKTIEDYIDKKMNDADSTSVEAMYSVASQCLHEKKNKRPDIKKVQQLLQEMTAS
How it was run: as §1

EPHB3 = molecular target: T3, EPHB3 (Homo sapiens, UniProt P54753)
T3 construct: purchased Nanosyn (enzymatic panel); SGC in-house recombinant human kinases (DSF panel); Invitrogen (ALK1-6)
T3 sequence (P54753 34-998): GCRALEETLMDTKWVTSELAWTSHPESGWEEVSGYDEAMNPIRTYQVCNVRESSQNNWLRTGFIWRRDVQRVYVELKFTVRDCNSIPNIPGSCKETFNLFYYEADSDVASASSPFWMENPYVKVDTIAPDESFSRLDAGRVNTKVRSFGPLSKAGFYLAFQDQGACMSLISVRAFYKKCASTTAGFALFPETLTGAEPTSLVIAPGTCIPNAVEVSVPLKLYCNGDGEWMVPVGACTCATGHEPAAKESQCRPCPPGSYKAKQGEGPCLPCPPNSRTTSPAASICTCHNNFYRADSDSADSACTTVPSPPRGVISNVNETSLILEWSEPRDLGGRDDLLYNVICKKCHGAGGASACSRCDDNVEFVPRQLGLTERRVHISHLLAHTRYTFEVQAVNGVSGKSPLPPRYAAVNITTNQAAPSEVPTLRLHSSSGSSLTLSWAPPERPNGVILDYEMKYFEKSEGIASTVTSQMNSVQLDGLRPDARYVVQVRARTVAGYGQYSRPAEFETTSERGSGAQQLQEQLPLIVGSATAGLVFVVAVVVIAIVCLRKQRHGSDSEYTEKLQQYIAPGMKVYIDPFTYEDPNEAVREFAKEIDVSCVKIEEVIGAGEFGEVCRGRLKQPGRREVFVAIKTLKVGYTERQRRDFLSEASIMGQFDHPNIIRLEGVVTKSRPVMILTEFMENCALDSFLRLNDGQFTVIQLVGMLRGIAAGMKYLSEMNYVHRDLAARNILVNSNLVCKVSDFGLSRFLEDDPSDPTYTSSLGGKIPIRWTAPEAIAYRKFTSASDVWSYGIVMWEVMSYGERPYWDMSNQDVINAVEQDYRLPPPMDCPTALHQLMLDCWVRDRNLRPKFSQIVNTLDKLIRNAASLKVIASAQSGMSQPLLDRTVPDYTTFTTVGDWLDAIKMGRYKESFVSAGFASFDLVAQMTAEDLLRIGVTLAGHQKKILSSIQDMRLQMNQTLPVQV
How it was run: as §1

JAK3 = molecular target: T4, JAK3 (Homo sapiens, UniProt P52333)
T4 construct: purchased Nanosyn (enzymatic panel); SGC in-house recombinant human kinases (DSF panel); Invitrogen (ALK1-6)
T4 sequence (P52333 1-1124): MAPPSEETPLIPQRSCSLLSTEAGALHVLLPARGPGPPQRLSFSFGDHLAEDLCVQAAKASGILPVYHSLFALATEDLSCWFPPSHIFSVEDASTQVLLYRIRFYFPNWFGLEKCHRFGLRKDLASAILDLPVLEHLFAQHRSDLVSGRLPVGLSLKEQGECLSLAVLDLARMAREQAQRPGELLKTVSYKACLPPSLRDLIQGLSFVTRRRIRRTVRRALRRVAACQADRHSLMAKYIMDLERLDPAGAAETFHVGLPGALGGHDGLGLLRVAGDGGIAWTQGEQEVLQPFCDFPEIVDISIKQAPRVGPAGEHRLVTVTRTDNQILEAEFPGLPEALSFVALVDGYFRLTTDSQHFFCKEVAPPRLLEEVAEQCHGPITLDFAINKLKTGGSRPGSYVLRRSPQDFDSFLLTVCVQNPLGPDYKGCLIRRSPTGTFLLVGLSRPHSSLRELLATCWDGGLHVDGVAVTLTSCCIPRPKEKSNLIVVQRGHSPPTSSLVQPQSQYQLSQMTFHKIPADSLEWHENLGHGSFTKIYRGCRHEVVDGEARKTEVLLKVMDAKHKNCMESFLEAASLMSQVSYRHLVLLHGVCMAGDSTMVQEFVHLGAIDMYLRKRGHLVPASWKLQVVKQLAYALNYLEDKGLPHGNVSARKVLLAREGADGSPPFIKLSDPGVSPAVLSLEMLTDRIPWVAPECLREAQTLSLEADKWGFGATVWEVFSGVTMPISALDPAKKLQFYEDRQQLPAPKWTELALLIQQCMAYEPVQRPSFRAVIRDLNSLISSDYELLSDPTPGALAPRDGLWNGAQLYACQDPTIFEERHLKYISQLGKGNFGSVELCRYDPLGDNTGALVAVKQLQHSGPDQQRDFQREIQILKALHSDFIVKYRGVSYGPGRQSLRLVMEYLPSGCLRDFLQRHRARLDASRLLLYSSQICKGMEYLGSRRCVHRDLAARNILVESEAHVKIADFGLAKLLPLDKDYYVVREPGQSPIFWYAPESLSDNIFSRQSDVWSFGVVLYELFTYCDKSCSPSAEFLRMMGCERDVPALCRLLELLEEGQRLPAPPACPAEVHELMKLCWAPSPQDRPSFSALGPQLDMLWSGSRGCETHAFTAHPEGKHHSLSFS
How it was run: as §1

CAMK2δ = molecular target: T5, CAMK2δ (Homo sapiens, UniProt Q13557)
T5 construct: purchased Nanosyn (enzymatic panel); SGC in-house recombinant human kinases (DSF panel); Invitrogen (ALK1-6)
T5 sequence (Q13557 whole entry): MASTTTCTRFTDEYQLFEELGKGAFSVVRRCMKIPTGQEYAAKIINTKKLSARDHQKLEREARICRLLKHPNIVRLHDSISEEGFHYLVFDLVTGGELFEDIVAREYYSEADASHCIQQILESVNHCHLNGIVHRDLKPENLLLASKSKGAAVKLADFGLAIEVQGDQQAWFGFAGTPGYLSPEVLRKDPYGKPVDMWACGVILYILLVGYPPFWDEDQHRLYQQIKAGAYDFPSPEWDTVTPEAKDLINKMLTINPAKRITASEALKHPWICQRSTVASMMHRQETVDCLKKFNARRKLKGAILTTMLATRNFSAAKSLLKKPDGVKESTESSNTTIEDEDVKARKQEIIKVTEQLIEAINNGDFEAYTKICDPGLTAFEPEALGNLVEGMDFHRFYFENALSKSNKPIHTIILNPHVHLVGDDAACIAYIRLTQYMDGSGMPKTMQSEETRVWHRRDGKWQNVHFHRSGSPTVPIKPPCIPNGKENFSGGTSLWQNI
How it was run: as §1

Row | SMILES | inhibition at 0.1 µM (cRAF) [%] | inhibition at 1 µM (cRAF) [%] | inhibition at 0.1 µM (IRAK4) [%] | inhibition at 1 µM (IRAK4) [%] | inhibition at 0.1 µM (EPHB3) [%] | inhibition at 1 µM (EPHB3) [%] | inhibition at 0.1 µM (JAK3) [%] | inhibition at 1 µM (JAK3) [%] | inhibition at 0.1 µM (CAMK2δ) [%] | inhibition at 1 µM (CAMK2δ) [%]
1 | COc1cc(-c2cc(-c3cccc(O)c3)cnc2N)cc(OC)c1OC [K02288, 3-[6-amino-5-(3,4,5-trimethoxy-phenyl)-pyridin-3-yl]-phenol] | -5 | -8 | -1 | 0.3 | -2 | -1 | 5.6 | 2.3 | -1 | 1.4
2 | c1ccc2c(-c3cnn4cc(-c5ccc(N6CCNCC6)cc5)cnc34)ccnc2c1 [LDN-193189] | 0.6 | 0.1 | 0.7 | 1.9 | 5.6 | 4.3 | 0 | 0.1 | 3.1 | 8.7
